According to publication PMC7667029, “A Targeted Computational Screen of the SWEETLEAD Database Reveals FDA-Approved Compounds with Anti-Dengue Viral Activity” (mBio, 2020):
“Also recorded” adds a separate entry of the source. Like-named read-outs stand apart in the source and are kept apart here.

What was measured:
DENV2 [1] = assay: Antiviral activity in DENV2-infected Huh7 cells, infectious virus in supernatant by plaque assay; format: cell-based, dengue virus; details: Dengue virus
Protocol: FIG 2 Pyrimethamine inhibits dengue virus and NS2B/3 proteinase cleavage like ARDP0006. (A) Chemical structures and (B) ROCS overlay of ARDP0006 and pyrimethamine. […] Infectious virus in cell supernatant was quantified by plaque assay at 24 hpi (left y axis, black or red). Cell viability was measured at the same pyrimethamine doses 24 h posttreatment by WST-1 assay (right y axis, gray). Viral titer and cell viability were normalized to DMSO-treated samples. (D) Splenic titers of DENV2-infected AGB6 mice at 4 days postinfection. Mice were infected with 1 × 10^6 PFU DENV2 and treated twice daily with 20 mg/kg pyrimethamine (n = 9) or a vehicle control (n = 10). Data were analyzed by two-tailed unpaired t test. (E) Cleavage kinetics of NS2B/3/4A in the presence of 100 μM pyrimethamine. NS2B/3/4A protein was expressed in vitro and radiolabeled with [^35S]methionine, followed by treatment with 100 μM pyrimethamine or DMSO. Reaction samples were obtained over a 45-min time course, separated by SDS-PAGE, and the fraction of uncleaved proteinase precursor remaining was determined as described previously ([23]). Data from three replicates were fit using single-phase exponential decay functions, and P value was determined by comparing the rate constant, K, of the models using the extra sum-of-squares F test.
Dengue plaque assays were carried out on BHK-21 cells in 24-well plates. Cells were infected with 10-fold serial dilutions of virus, which were allowed to adsorb for at least 1 h at 37°C, and overlaid with standard cell culture medium plus 0.37% (w/vol) sodium bicarbonate and 0.8% (w/vol) Aquacide II (Millipore Calbiochem). After 7 days of incubation at 37°C, 5% CO2, cells were fixed with 5% (final) formaldehyde and stained with crystal violet for plaque enumeration.
Between 4 × 10^4 and 1 × 10^5 Huh7 cells per well were seeded into 24-well plates 1 day prior to infection. Compounds were diluted to 100× final concentration in DMSO and then further diluted 1:100 into appropriate cell culture. Unless otherwise indicated, tested compounds were present for 1 h pretreatment and readministered for posttreatment following infection. […] Media and drugs were removed from cells for infection at a multiplicity of infection (MOI) of 0.1 or 0.5 in 200 μl cold medium per well. After 1 h at 37°C, virus inoculum was removed by aspiration and replaced with medium plus compound or control. After 24-h total infection, infectious virus was quantified by plaque assay. Antiviral IC50 dose-response curves were fitted in GraphPad Prism 8 using the “[inhibitor] versus response, variable slope” function with a constraint “bottom > 0.” IC90 values are defined as the dose at which “y = (span × 0.1) + bottom.”

dengue virus [2] = test system: dengue virus; set-up: method as in PMID 25823617; details: read-out: IC50, inhibition of viral growth in cell culture; cited from earlier work
NS2B/3 proteinase = molecular target: NS2B/3 proteinase; set-up: method as in PMID 30228122; details: read-out: IC50, inhibition of NS2B/3 proteinase cleavage activity in solution; cited from earlier work
NS2B/3/4A = molecular target: T1, NS2B/3/4A (Dengue virus type 2, UniProt P29990); assay: In vitro translation-based proteinase cleavage assay of NS2B/3/4A precursor; format: biochemical; details: 100 μM pyrimethamine vs DMSO, 45-min time course, translation extracts
T1 construct: NS2B/3/4A protein was expressed in vitro and radiolabeled with [^35S]methionine; made in house; host or cells: rabbit reticulocyte lysate (TNT coupled T7; Promega), cell-free in vitro translation
T1 sequence (P29990 1476-2093): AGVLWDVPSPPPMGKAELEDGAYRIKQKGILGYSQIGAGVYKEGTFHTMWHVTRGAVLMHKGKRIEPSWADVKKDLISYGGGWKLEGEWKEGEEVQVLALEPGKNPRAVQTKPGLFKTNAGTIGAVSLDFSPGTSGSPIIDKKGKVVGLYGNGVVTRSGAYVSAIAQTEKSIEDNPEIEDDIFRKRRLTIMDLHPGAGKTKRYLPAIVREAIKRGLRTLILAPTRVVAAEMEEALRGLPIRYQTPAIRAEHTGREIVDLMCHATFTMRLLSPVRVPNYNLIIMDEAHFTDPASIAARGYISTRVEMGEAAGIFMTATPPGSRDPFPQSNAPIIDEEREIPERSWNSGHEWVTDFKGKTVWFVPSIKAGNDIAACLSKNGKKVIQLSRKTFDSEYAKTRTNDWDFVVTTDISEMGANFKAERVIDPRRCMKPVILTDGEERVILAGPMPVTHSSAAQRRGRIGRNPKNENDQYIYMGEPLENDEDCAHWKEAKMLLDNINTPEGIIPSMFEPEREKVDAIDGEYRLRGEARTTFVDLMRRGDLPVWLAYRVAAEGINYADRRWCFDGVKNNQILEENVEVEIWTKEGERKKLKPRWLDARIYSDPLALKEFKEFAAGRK
T1 sequence (P29990 1346-1475): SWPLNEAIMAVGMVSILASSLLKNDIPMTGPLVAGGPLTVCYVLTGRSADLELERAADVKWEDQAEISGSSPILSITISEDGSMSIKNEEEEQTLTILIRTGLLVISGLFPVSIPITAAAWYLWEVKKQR
Protocol: FIG 2 Pyrimethamine inhibits dengue virus and NS2B/3 proteinase cleavage like ARDP0006. (A) Chemical structures and (B) ROCS overlay of ARDP0006 and pyrimethamine. […] Compounds were added 1 h prior to infection, removed, and then readministered after removal of viral inoculum. Infectious virus in cell supernatant was quantified by plaque assay at 24 hpi (left y axis, black or red). Cell viability was measured at the same pyrimethamine doses 24 h posttreatment by WST-1 assay (right y axis, gray). Viral titer and cell viability were normalized to DMSO-treated samples. (D) Splenic titers of DENV2-infected AGB6 mice at 4 days postinfection. Mice were infected with 1 × 10^6 PFU DENV2 and treated twice daily with 20 mg/kg pyrimethamine (n = 9) or a vehicle control (n = 10). Data were analyzed by two-tailed unpaired t test. […] Reaction samples were obtained over a 45-min time course, separated by SDS-PAGE, and the fraction of uncleaved proteinase precursor remaining was determined as described previously ([23]). Data from three replicates were fit using single-phase exponential decay functions, and P value was determined by comparing the rate constant, K, of the models using the extra sum-of-squares F test. […]
Proteinase cleavage assays were performed as previously described ([23]). […] Protein quantification was performed using ImageQuant TL 8.1 software (GE Healthcare Life Sciences).

[3] = ref PubChem database, cited from earlier work; for LD50: single dose
DENV2 [4] = assay: DENV2-infected AGB6 mouse model (splenic titer, survival); format: in vivo, AGB6 mice; details: for Splenic titer of dengue virus: AGB6 mice, 20 mg/kg pyrimethamine twice daily, oral gavage, 4 days postinfection, 20 mg/kg
dengue virus [5] = assay: Initial screening of hit compounds for anti-dengue activity in tissue culture cells (Table S1); format: cell-based; details: viral titer relative to vehicle, tissue culture cell lines (BHK-21 48 hpi, Fig. S1; Huh7, Fig. 2C, 3C, 4C)
Protocol: For each query molecule, the top 500 compound hits obtained from the ROCS algorithm, as ranked by the Tanimoto combo score (see Data Set S1 in the supplemental material), were manually inspected for similar chemical and structural features. They were further prioritized by factors such as a lack of known side effects, commercial availability, and the intellectual property considerations that would be needed for worldwide, inexpensive use. Fourteen candidates were tested for their effects on dengue virus growth and toxicity in BHK-21 and Huh7 cells (see Table S1 and Fig. S1 in the supplemental material).
Supplementary file : TABLE S1 Summary of hits for lead compounds ARDP0006 and ST-148 screened for anti-dengue activity in tissue culture cells. Hit compounds were tested for anti-dengue activity and cell toxicity in tissue culture cell lines. Antiviral activity is summarized as follows: −, not antiviral, with titer greater than 50% of vehicle; +, weakly antiviral, with titer between 20 and 50% of vehicle; ++, moderately antiviral, with titer between 5 and 20% of vehicle; +++, highly antiviral, with titer less than 5% of vehicle. Toxicity at these doses is represented as follows: −, nontoxic, with cell viability greater than 80% of vehicle; +, mild toxicity, with cell viability between 60 and 80% of vehicle; +++, high toxicity, with cell viability less than 60% of vehicle. Data summarized here are depicted graphically in Fig. S1 and Fig. 2C, 3C, and [4]C. The Tanimoto combo score of each hit during initial ROCS screening is indicated; higher Tanimoto combo scores are indicative of increased chemical similarity. Download Table S1, PDF file, 0.04 MB.
Supplementary file : FIG S1 Initial screening of eliminated hit compounds for anti-dengue activity in tissue culture cells. BHK-21 cells were pretreated with the compounds at the indicated concentrations for 30 min, infected with dengue virus at an MOI of 0.1 PFU/cell for 1 h, and then posttreated with compound. At 48 hpi, cellular supernatant was collected and titered by plaque assay (purple). Cell viability in uninfected cells in the presence of compounds for 48 h was measured by WST assay (gray). Both viral titer and cell viability are normalized to their relative DMSO vehicle control, N = 2. Download FIG S1, PDF file, 0.06 MB.

dengue virus [6] = assay: Antiviral activity in VPS34 knockout Huh7 cells; format: cell-based; details: 5 μM compound, MOI 0.5, 24 hpi
Protocol: FIG 5 Vandetanib and spautin-1 inhibit dengue maturation and egress in a VPS34-independent manner. […] Cells were pretreated for 1 h, infected for 1 h at an MOI of 0.5 PFU/cell, and posttreated for an additional 23 h. N = 4, one-way ANOVA with Dunnett’s multiple-comparison test. ns, not significant (P > 0.05); **, P < 0.01; ****, P < 0.0001. (C) Huh7 cells transfected with a luciferase-expressing RNA replicon were treated with 3 μM vandetanib (orange) or 1% DMSO vehicle control (black) for 1 h prior to transfection and up to 52 h posttransfection. Luciferase intensity was quantified as a measure of viral protein abundance. Luciferase intensity was shown as relative light units (RLU). The use of an RNA replicon that is directly transfected into cells reflects only translation and RNA replication steps of viral infection, not viral packaging or cell exit. N = 4, two-way ANOVA with Sikak’s multiple-comparison test. […] (D) VPS34 was not required for spautin-1 or vandetanib anti-dengue activity. Wild-type and VPS34 knockout Huh7 cells were treated with 5 μM spautin-1, 5 μM vandetanib, or DMSO. Cells were pretreated, infected at an MOI of 0.5, and posttreated as described above for panels A and B. At 24 hpi, cellular supernatant was collected and titered by plaque assay. N ≥ 3. One-way ANOVA with Dunnett’s multiple-comparison test; *, P < 0.05; **, P < 0.01; ***, P < 0.001; ****, P < 0.0001. […]

dengue virus [7] = assay: Extracellular and intracellular virus quantification in Huh7 cells; format: cell-based; details: IC90 dose (spautin-1 2.4 μM, vandetanib 3.6 μM), Huh7, 24 hpi
Protocol: FIG 5 Vandetanib and spautin-1 inhibit dengue maturation and egress in a VPS34-independent manner. […] Cells were pretreated for 1 h, infected for 1 h at an MOI of 0.5 PFU/cell, and posttreated for an additional 23 h. N = 4, one-way ANOVA with Dunnett’s multiple-comparison test. ns, not significant (P > 0.05); **, P < 0.01; ****, P < 0.0001. (C) Huh7 cells transfected with a luciferase-expressing RNA replicon were treated with 3 μM vandetanib (orange) or 1% DMSO vehicle control (black) for 1 h prior to transfection and up to 52 h posttransfection. Luciferase intensity was quantified as a measure of viral protein abundance. Luciferase intensity was shown as relative light units (RLU). The use of an RNA replicon that is directly transfected into cells reflects only translation and RNA replication steps of viral infection, not viral packaging or cell exit. N = 4, two-way ANOVA with Sikak’s multiple-comparison test. […] (D) VPS34 was not required for spautin-1 or vandetanib anti-dengue activity. Wild-type and VPS34 knockout Huh7 cells were treated with 5 μM spautin-1, 5 μM vandetanib, or DMSO. Cells were pretreated, infected at an MOI of 0.5, and posttreated as described above for panels A and B. At 24 hpi, cellular supernatant was collected and titered by plaque assay. N ≥ 3. One-way ANOVA with Dunnett’s multiple-comparison test; *, P < 0.05; **, P < 0.01; ***, P < 0.001; ****, P < 0.0001.
After 1 h, virus inoculum was aspirated and replaced with medium containing compounds or 1% DMSO. After 24-h total infection, extracellular virus was collected in cellular supernatant and quantified by plaque assay. To collect intracellular virus, cells were washed with PBS, incubated for 3 min at 4°C with high-salt buffer (1 M NaCl, 50 mM sodium bicarbonate [pH 9.5]) to detach cell-associated extracellular virus ([63]), washed twice with PBS, detached with 0.25% trypsin-EDTA, and isolated by centrifugation (500 × g, 5 min, 4°C). Infected cell pellets were resuspended in 750 μl cell culture medium, lysed by repeated freeze/thaw in liquid nitrogen followed by 37°C water bath. Debris was removed by centrifugation (3,200 × g, 5 min, 4°C), and infectious intracellular virus was quantified by BHK-21 plaque assay.

[8] = Huh-7, DENV2-infected Huh7 cells, single infectious cycle, plaque assay at 24 hpi, read-out: IC50 of viral inhibition (infectious extracellular virus)

Structure (SMILES) | IC50 (DENV2 [1]; DENV2, Huh-7, read-out: IC50 of viral inhibition (infectious extracellular virus)) [nM] | IC50 (dengue virus [2]) [nM] | IC50 (NS2B/3 proteinase) [nM] | Cleavage kinetics of NS2B/3/4A precursor (NS2B/3/4A) | Cleavage kinetics of NS2B/3/4A precursor (NS2B/3/4A; listed as pyrimethamine) | LD50 ([3]; IP) [mg/kg] | LD50 ([3]; Oral) [mg/kg] | Acute toxicity in words (Table S2) ([3]; healthy mice) | IC50 (DENV2 [1]; [8]) [nM] | Splenic titer of dengue virus (DENV2 [4]) | Splenic titer of dengue virus (DENV2 [4]; listed as pyrimethamine) | Mortality on sustained treatment (survival experiments) (DENV2 [4]; infected AGB6 mice, sustained pyrimethamine treatment) | Antiviral (dengue virus [5]) | IC90 (DENV2 [1]; Huh-7, DENV2-infected Huh7 cells, from dose-response curve fit, 24 hpi) [nM] | Antiviral activity in VPS34 knockout cells (dengue virus [6]) | Extracellular viral titer (dengue virus [7]) | Infectious intracellular virus (dengue virus [7])
O=C1c2c(O)ccc([N+](=O)[O-])c2C(=O)c2c([N+](=O)[O-])ccc(O)c21 [ARDP0006] | 590 | 2700 | 620000 |  |  |  |  |  |  |  |  |  |  |  |  |  | 
CCc1nc(N)nc(N)c1-c1ccc(Cl)cc1 [Pyrimethamine, pyrimethamine] |  |  |  | inhibited intramolecular NS2B/3 cleavage | significantly slowed dengue virus NS2B/3 cleavage; also recorded: slowing proteinase cleavage in translation extracts | 74 | 92 | well tolerated | 1200 | significantly reduced viral splenic burden | reduced viral loads; also recorded: significant reduction in splenic titer | caused marked mortality | +++ (highly antiviral, with titer less than 5% of vehicle) |  |  |  | 
Fc1ccc(CNc2ncnc3ccc(F)cc23)cc1 [spautin-1] |  |  |  |  |  |  |  |  | 1100 |  |  |  |  | 2400 | retained significant antiviral activity; also recorded: retained their ability to limit dengue virus egress | significantly reduced; also recorded: reduced extracellular virus | unchanged; also recorded: abundant intracellular virus
